Measurements taken from patent US20150148311A1, “NON-SYSTEMIC TGR5 AGONISTS” (Ardelyx, Inc., priority 2011, published 2015).

Tests used:
human TGR5 = biological target: T1, human TGR5 (Homo sapiens, UniProt Q8TDU6); experiment: Cell-based TGR5 assay, HEK293 cells stably expressing human TGR5, cAMP by HTRF; settings: HEK293 cells stably expressing human TGR5, 30 min at 37 C, 0.05 nM to 10 μM, read-out: pEC50 Human TGR5 (converted)
T1 construct: expressed in transfected cells
T1 sequence (Q8TDU6 1-330): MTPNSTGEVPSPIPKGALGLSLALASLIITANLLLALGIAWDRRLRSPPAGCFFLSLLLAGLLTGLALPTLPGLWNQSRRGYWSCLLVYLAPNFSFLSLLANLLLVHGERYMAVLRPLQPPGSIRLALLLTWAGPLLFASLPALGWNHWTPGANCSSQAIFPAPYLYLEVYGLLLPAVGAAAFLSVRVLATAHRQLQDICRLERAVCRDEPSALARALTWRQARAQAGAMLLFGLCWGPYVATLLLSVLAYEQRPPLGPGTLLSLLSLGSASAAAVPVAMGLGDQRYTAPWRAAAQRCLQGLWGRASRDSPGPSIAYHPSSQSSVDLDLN
Summary of the method: (§1)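 cAMP HTRF read-out, converted to concentration via standard curve, after a 30 min, 37 °C compound exposure in HBSS with 10 mM HEPES pH 7.4 and 0.5 mM IBMX, compounds serially diluted 3-fold from 10 mM DMSO stock then 100-fold. Cells: stable human TGR5 HEK293, or NCI-H716 expressing TGR5 endogenously.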

[1] = biological target: T2, endogenously expressed TGR5 in NCI H716 (Homo sapiens, UniProt Q8TDU6); experiment: Cell-based TGR5 assay, NCI-H716 cells endogenously expressing human TGR5, cAMP by HTRF; settings: 30 min at 37 C, 22 nM to 50 μM, read-out: pEC50 endogenously expressed TGR5 in NCI H716 (converted)
T2 construct: human caecum carcinoma cell line NCI-H716 which endogenously expresses human TGR5; endogenous in cells; host or cells: NCI-H716
T2 sequence (Q8TDU6 1-330): T1 sequence (Q8TDU6 1-330)
Summary of the method: as §1

total GLP-1 = experiment: In vivo GLP-1 secretion, plasma total GLP-1 8 h post dose; settings: Mus musculus, C57BL/6 male mice, food removed, plasma total GLP-1 eight hours after dosing, read-out: GLP-1 fold change over vehicle, Mean
Excerpt: (§2) Eight hours later, each mouse was heavily anesthetized with isoflurane, the peritoneal cavity was opened and the gallbladder, with its entire contents, was carefully excised and weighed. Blood was collected from the left ventricle of the heart and processed to plasma in EDTA-coated tubes containing aprotinin and DPPIV inhibitor for measurement of total GLP-1 (K150FCC; Meso Scales Discovery, Gaithersburg Md.).

C57BL/6 male mice = experiment: In vivo gallbladder measurement (weight) 8 h post dose; settings: 30 mg/kg; for Gallbladder weight/body weight fold change over vehicle, Significance: 8 h, vs. vehicle, one-way ANOVA, Dunnett's test; for Gallbladder weight/body weight fold change over vehicle, Mean: food removed, eight hours after dosing
Excerpt: as §2

[2] = Compound concentration in gall bladder, LC-MS/MS, 8 h post dose; format: in vivo; settings: 30 mg/kg; for Number of Mice with Gallbladder Concentration < LLOQ: mice below LLOQ / mice in group; for concentration at 8 h: male, C57BL/6, mouse, with contents, mice, gallbladder homogenate, read-out: Mean Example Gallbladder Concentration
Experimental: as §2
Compound concentrations in the gall bladder were determined as follows: each mouse was heavily anesthetized with isoflurane, the peritoneal cavity was opened and the gallbladder, with its entire contents, was carefully excised. After harvest, gall bladders were homogenized in 100 μL water using a micro-homogenizer. Samples of homogenate were diluted 1:5 in water and precipitated with three volumes of neat acetonitrile. After centrifugation, supernatants were analyzed by LC-MS/MS. The level of test compound present in gall bladder samples was interpolated from a standard curve for each individual compound prepared in a matrix of gallbladder homogenate from vehicle treated animals.

[3] = Compound plasma concentration, LC-MS/MS, 8 h post dose; format: in vivo; settings: 30 mg/kg; for Number of Mice with Plasma Concentration < LLOQ: mice below LLOQ / mice in group; for concentration at 8 h: male, C57BL/6, mouse, mice, plasma, read-out: Mean Example Plasma Concentration
Experimental: as §2
Plasma samples were treated with acetonitrile containing an internal standard, precipitated proteins removed by centrifugation. Supernatants were analyzed by LC-MS/MS and compound concentrations were determined by interpolated from a standard curve prepared in plasma.

human FXR = biological target: T3, human FXR (Homo sapiens, UniProt Q96RI1); experiment: FXR counter screen, cell-based luciferase reporter assay; settings: cells expressing human FXR and FXR-responsive luciferase reporter, 0.4 to 50 μM test compound; read-out: pEC50 human FXR (converted)
T3 construct: purchased Indigo Biosciences (State College, Pa.)
T3 sequence (Q96RI1 1-486): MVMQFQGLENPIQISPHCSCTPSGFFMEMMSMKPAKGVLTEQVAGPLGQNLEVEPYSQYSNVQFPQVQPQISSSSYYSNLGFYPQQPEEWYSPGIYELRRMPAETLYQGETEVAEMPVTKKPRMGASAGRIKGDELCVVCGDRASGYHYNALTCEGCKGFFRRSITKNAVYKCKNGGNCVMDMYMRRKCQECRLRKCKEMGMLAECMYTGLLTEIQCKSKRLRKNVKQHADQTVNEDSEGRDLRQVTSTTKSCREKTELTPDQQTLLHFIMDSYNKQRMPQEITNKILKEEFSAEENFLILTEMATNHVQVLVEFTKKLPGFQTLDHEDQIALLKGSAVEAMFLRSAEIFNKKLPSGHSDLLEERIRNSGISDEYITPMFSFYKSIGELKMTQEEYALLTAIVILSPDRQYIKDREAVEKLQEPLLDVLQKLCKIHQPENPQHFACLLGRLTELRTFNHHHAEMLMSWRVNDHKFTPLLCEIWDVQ
Experimental: FXR: The ability of test compounds to activate FXR (NR1H4) was measured using a cell-based assay kit obtained from Indigo Biosciences (State College, Pa.).

human IBAT = biological target: T4, human IBAT (Homo sapiens, UniProt Q12908); experiment: IBAT counter screen, [3H]taurocholic acid uptake in IBAT-transfected HEK293 cells; format: cell-based; settings: read-out: pEC50 human IBAT (converted)
T4 construct: expressed in transfected cells; host or cells: HEK293
T4 sequence (Q12908 1-348): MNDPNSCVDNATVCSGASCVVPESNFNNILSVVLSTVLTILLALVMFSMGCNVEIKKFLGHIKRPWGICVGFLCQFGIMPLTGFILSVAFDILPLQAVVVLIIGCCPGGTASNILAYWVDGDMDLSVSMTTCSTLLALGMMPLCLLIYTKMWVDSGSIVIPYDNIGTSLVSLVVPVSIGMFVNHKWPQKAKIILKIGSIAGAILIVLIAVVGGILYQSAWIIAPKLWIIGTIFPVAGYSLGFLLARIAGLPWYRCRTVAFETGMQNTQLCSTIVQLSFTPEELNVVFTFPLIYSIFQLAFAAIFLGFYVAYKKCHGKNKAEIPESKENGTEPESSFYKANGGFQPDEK
Experimental: Following a 40-min incubation, the solution was removed, and the cells were washed twice with uptake buffer. Cells were lysed by addition of 20 μL 0.1% Tween 80 followed by 100 μL scintillation fluid and counted using a TopCount (Perkin Elmer).

Row | SMILES | EC50 (human TGR5) [nM] | EC50 [1] [nM] | response vs control in vivo at 30 mg/kg (total GLP-1) [%] | Gallbladder weight/body weight fold change over vehicle, Significance (C57BL/6 male mice) | Gallbladder weight/body weight fold change over vehicle, Mean (C57BL/6 male mice) [fold change over vehicle] | Number of Mice with Gallbladder Concentration < LLOQ [2] | concentration at 8 h [2] [nM] | Number of Mice with Plasma Concentration < LLOQ [3] | concentration at 8 h [3] [ng/mL] | EC50 (human FXR) [µM] | EC50 (human IBAT) [µM]
1 | CN(C(=O)C1(OCc2cc(Cl)c(CCCNC(=O)NC[C@H](O)[C@@H](O)[C@H](O)[C@H](O)CO)cc2Cl)CC1)c1ccccc1OC1CC1 [Example 96, N-(2-cyclopropoxyphenyl)-1-(2,5-dichloro-4-(3-(3-((2S,3R,4R,5R)-2,3,4,5,6-pentahydroxyhexyl)ureido)propyl)benzyloxy)-N-methylcyclopropanecarboxamide] | < 100 | < 100 | 190 | n.s. | 0.8 | 0/8 | 1340 | 8/8 | < 2 | – | –
2 | O=C(CCc1cc(Cl)c(COC2(C(=O)N3CCN(C4CC4)c4ccccc43)CC2)cc1Cl)NC[C@H](O)[C@@H](O)[C@H](O)[C@H](O)CO [Example 88, 3-[2,5-dichloro-4-([1-[(4-cyclopropyl-1,2,3,4-tetrahydroquinoxalin-1-yl)carbonyl]cyclopropoxy]methyl)phenyl]-N-[(2S,3R,4R,5R)-2,3,4,5,6-pentahydroxyhexyl]propanamide] | < 100 | < 100 | – | – | – | – | – | – | – | > 50.1 | –
3 | O=C(N1CCN(C2CC2)c2ccccc21)C1(OCc2cc(Cl)ccc2Cl)CC1 [Example 9, (4-cyclopropyl-3,4-dihydroquinoxalin-1(2H)-yl)(1-(2,5-dichlorobenzyloxyl)cyclopropyl)methanone] | < 100 | 126 to 1000 | – | – | – | – | – | – | – | > 50.1 | > 25.1
4 | CN(C[C@H](O)[C@@H](O)[C@H](O)[C@H](O)CO)C(=O)NCCCCOc1cc(Cl)c(CN2CSC[C@H]2C(=O)N2CCN(C3CC3)c3ccccc32)cc1Cl [Example 191] | < 100 | 126 to 1000 | 150 | n.s. | 1.0 | 0/8 | 100 | 8/8 | < 0.5 | – | –
5 | CN(C[C@H](O)[C@@H](O)[C@H](O)[C@H](O)CO)C(=O)CCc1cc(Cl)c(OCC2(C(=O)N3CCN(C4CC4)c4ccccc43)CC2)cc1Cl [Example 34, 3-[2,5-dichloro-4-([1-[(4-cyclopropyl-1,2,3,4-tetrahydroquinoxalin-1-yl)carbonyl]cyclopropyl]methoxy)phenyl]-N-methyl-N-[(2S,3R,4R,5R)-2,3,4,5,6-pentahydroxyhexyl]propanamide] | 126 to 1000 | 1260 to 50100 | – | – | – | – | – | – | – | > 50.1 | –
6 | CN(C[C@H](O)[C@@H](O)[C@H](O)[C@H](O)CO)C(=O)CCc1cc(Cl)c(COC2(C(=O)N3CCN(C4CC4)c4ccccc43)CC2)cc1Cl [Example 80, 3-[2,5-dichloro-4-([1-[(4-cyclopropyl-1,2,3,4-tetrahydro-quinoxalin-1-yl)carbonyl]cyclopropoxy]methyl)phenyl]-N-methyl-N-[(2S,3R,4R,5R)-2,3,4,5,6-pentahydroxyhexyl]propanamide] | < 100 | 126 to 1000 | – | – | – | – | – | – | – | > 50.1 | –
7 | O=C(CCCCc1cc(Cl)c(COC2(C(=O)N3CCN(C4CC4)c4ccccc43)CC2)cc1Cl)NC[C@H](O)[C@@H](O)[C@H](O)[C@H](O)CO [Example 193] | < 100 | – | 90 | n.s. | 1.1 | 0/8 | 900 | 5/8 | 5.2 | – | > 25.1
8 | O=C(N1CCN(C2CC2)c2ccccc21)C1(COc2cc(Cl)ccc2Cl)CC1 [Example 32, 1-cyclopropyl-4-[[1-(2,5-dichlorophenoxymethyl)cyclopropyl]carbonyl]-1,2,3,4-tetrahydroquinoxaline] | < 100 | 126 to 1000 | – | – | – | – | – | – | – | > 50.1 | –
9 | O=C(CCc1cc(Cl)c(OCC2(C(=O)N3CCN(C4CC4)c4ccccc43)CC2)cc1Cl)NC[C@H](O)[C@@H](O)[C@H](O)[C@H](O)CO [Example 75, 3-[2,5-dichloro-4-([1-[(4-cyclopropyl-1,2,3,4-tetrahydroquinoxalin-1-yl)carbonyl]cyclopropyl]methoxy)phenyl]-N-[(2S,3R,4R,5R)-2,3,4,5,6-pentahydroxyhexyl]propanamide] | 126 to 1000 | 126 to 1000 | – | – | – | – | – | – | – | > 50.1 | –
10 | O=C(CCCCc1cc(Cl)c(CNC2(C(=O)N3CCN(C4CC4)c4ccccc43)CC2)cc1Cl)NC[C@H](O)[C@@H](O)[C@H](O)[C@H](O)CO [Example 218] | < 100 | < 100 | 140 | n.s. | 1.0 | 0/8 | 100 | 2/8 | 0.7 | – | > 25.1
11 | O=C(N1CCN(C2CC2)c2ccccc21)C1(NCc2cc(Cl)cc(O)c2Cl)CC1 [Example 167, (4-cyclopropyl-3,4-dihydroquinoxalin-1(2H)-yl)(1-((2,5-dichloro-3-hydroxybenzyl)amino)cyclopropyl)methanone] | 126 to 1000 | – | 130 | n.s. | 1.3 | 0/8 | 3300 | 5/8 | 2.3 | – | –
